Ends that are not written are not given here.
Tests used:
[1] = system: normal human epidermal keratinocytes; conditions: cited from earlier work
Excerpt: (§1) Encouraged by the efficacy of the MP1/Nis/Aur combination in inhibiting S. aureus in the wound, we sought to examine the potential of the antimicrobial combination in treating mastitis, an infection often caused by S. aureus.

[2] = system: S. aureus Xen31 isolates Mut1 and Mut2; assay: Spot-on-lawn assay on isolates recovered from wounds; assay type: cell-based; conditions: for zone of inhibition compared to wild-type strain Xen31: both isolates Mut1 and Mut2, 2 µl of 1 mg/ml nisin A, 0.1 mg/ml MP1 and/or 0.1 mg/ml AuresinePlus spotted
Experimental: Figure S9. Susceptibility of Xen31 mutants recovered from wounded mice. Spot-on-lawn assay using MP1 (M), Nis (N), Aur (A) or the tricomponent combination (MNA) comparing Xen31 WT with two resistant isolates recovered at day 7 PI from the back of wounded mice. Two µl of 1 mg/ml nisin A, 0.1 mg/ml MP1 and/or 0.1 mg/ml AuresinePlus were spotted.

[3] = system: HepG2 and THP-1 cell lines; conditions: cited from earlier work
Excerpt: as §1

[4] = system: S. aureus Xen31; conditions: formulation: 0.1 mg/mL MP1, 5 mg/mL garvicin KS, 5 mg/mL penicillin G in 5% hydropropylcellulose; cited from earlier work
Excerpt: (§2) The antimicrobial combinations of MP1, Nis, and AuresinePlus were additionally shown to be effective at eradicating S. aureus biofilms (Fig. 3B and C). This led us to assess the antimicrobial efficacy of the combination in vivo using a murine skin infection model. For infected mice treated with the combination, a reduction in the bioluminescence signal was observed throughout the experiment, except for two mice where a relapse of the infection occurred (see Discussion below, Fig. 4C).

[5] = system: S. aureus; conditions: in vitro; cited from earlier work
Excerpt: As individual components, these antimicrobials probably have limited efficacy against S. aureus in wounds. AuresinePlus is an engineered PGH consisting of the catalytic domain of the S. aureus autolysin LytM and the SH3b cell wall-binding domain lysostaph ...

[6] = system: HT29 and Caco-2 cell lines; conditions: in vitro; cited from earlier work
Excerpt: as §1

[7] = system: S. aureus Xen36; conditions: cited from earlier work
Excerpt: as §2

Substance: Lysostaphin: large (>10 kDa) heat-labile bacteriolysin from S. simulans
- IC50 (midpoint cytotoxicity value) [1]: 16000 µg/mL

Substance: micrococcin P1 [MP1]
- sensitivity of isolate Mut2 ([2]; Mut2, 2 µl of 0.1 mg/ml MP1 spotted): insensitive
- zone of inhibition compared to wild-type strain Xen31 [2]: particularly reduced
- concentration above which growth is impaired [3]: above 0.03 mg/mL
- negative effects on the mice [4]: no obvious negative effects on the mice

Substance: nisin A (ITSISLCTPGCKTGALMGCNMKTATCHCSIHVSK; also: lantibiotic (lanthionine rings, dehydro residues) not placed; UniProt P13068 24-57, looked up) [lantibiotic bacteriocin; commercial fermentate from Sigma-Aldrich (N5764; 2.5% wt/wt nisin)]
- zone of inhibition compared to wild-type strain Xen31 [2]: particularly reduced
- frequency of spontaneous mutations conferring high levels of nisin tolerance [5]: 2 × 10^−7
- IC50 (cytotoxicity) [6]: 300 to 400 µg/mL
- effect on wound healing [7]: no negative effects on wound healing
- reduction in bacterial counts ([7]; skin wounds, nisin concentration comparable to this study): 2 log

From article PMC12285270, “An antibiotic-free antimicrobial combination of bacteriocins and a peptidoglycan hydrolase: in vitro and in vivo assessment of its efficacy” (Applied and Environmental Microbiology, 2025)
